The values that follow come from ChEMBL document CHEMBL1150012, “Enantioselective synthesis of a pyrrolo-benzothiadiazine derivative S 18986, a new AMPA receptor positive modulator” (Bioorg Med Chem Lett, 1996).

Experiment [1] has as its target Glutamate receptor 1 (Rattus norvegicus) (UniProt P19490). The experiment can be described thus: (§1) Compound was evaluated to potentiate response of AMPA-activated current in Xenopus oocytes expressing Ionotropic glutamate receptor AMPA. The class given is functional, cell-based. The settings on record: Oocyte.
Experiment [2] concerns the target Glutamate receptor ionotropic kainate (Homo sapiens) (UniProt P39086+Q16478+Q16099+Q13002+Q13003). The experiment can be described thus: Compound was evaluated to potentiate response to Ionotropic glutamate receptor kainate. The experiment is classed as protein-complex assay.
Experiment [3] addresses Glutamate [NMDA] receptor (Homo sapiens) (UniProt Q05586+Q12879+Q13224+O15399+O60391+Q14957+Q8TCU5). The experiment can be described thus: Compound was evaluated to potentiate response to NMDA receptor. The experiment is classed as protein-complex assay.
Experiment [4] has as its target Glutamate receptor ionotropic AMPA (Homo sapiens) (UniProt P48058+P42263+P42262+P42261). Described as §1. The class given is functional, cell-based. The following applies: Oocyte.

Chain of Glutamate receptor 1 (Rattus norvegicus) (P19490 whole entry): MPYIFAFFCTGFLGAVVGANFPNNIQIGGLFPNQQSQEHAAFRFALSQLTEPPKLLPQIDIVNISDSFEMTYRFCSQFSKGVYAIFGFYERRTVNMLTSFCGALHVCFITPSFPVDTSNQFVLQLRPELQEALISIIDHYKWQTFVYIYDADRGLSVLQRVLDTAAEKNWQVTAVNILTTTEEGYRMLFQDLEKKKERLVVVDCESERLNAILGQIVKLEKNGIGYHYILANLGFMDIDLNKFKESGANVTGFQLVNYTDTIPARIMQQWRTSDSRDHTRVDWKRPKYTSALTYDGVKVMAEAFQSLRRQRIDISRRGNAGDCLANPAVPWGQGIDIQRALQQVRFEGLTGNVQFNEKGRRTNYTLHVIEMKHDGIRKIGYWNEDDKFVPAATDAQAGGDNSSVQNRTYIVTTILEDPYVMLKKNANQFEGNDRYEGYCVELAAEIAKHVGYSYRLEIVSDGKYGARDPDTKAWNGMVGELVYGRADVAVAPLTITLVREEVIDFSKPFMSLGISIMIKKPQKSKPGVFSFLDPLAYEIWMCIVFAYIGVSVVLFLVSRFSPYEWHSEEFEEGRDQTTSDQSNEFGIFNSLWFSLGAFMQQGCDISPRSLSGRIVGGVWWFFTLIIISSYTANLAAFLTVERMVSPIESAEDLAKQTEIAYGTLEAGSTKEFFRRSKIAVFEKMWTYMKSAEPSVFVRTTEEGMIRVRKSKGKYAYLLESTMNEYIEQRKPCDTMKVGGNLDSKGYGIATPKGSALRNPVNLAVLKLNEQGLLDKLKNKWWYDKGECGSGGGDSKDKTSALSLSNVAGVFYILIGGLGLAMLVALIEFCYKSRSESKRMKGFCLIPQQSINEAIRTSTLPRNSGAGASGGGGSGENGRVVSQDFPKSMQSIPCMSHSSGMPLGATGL

In the case of `O=C(c1ccc2c(c1)OCCO2)N1CC=CCC1`, in experiment [1], the EC2x came out at 45 µM and the EC5x is 110 µM.

On to `O=S1(=O)NC2CCCN2c2ccccc21` (racemic), for which, in experiment [1], the EC2x was found to be 60 µM and the EC5x amounted to 160 µM.

`NS(=O)(=O)c1cc2c(cc1Cl)NC(C1CC3C=CC1C3)NS2(=O)=O` (configuration not stated): in experiment [1], the EC2x was 2 µM and the EC5x came to 10 µM.

For the compound `O=S1(=O)N[C@H]2CCCN2c2ccccc21`, the EC2x in experiment [2] was above 300 µM; in experiment [3], above 300 µM; in experiment [4], 35 µM. Also, in experiment [4], the EC5x amounted to 70 µM.

Regarding `O=S1(=O)N[C@@H]2CCCN2c2ccccc21`, the EC2x in experiment [1] stood at 300 µM.

Consider `O=C(c1ccc2c(c1)OCO2)N1CCCCC1`, for which the EC2x in experiment [1] stood at 300 µM.
